Measurements as given in patent US8039014B2, “3′-alkoxyspirocyclopentyl-substituted tetramic and tetronic acids” (Bayer Cropscience AG, priority 2005, dated 2011).

Test system: cereal
Assay: Herbicidal post-emergence action with safener: container trials with cereal outdoors ('bird cage'), mefenpyr 1 day prior to herbicide application
Format: in vivo
Conditions: without safener
Procedure: Seeds of monocotyledonous and dicotyledonous weed and crop plants are placed into sandy loam in wood fiber pots or in plastic pots, covered with soil and cultivated in a greenhouse, during the vegetation period also outdoors outside of the greenhouse, under good growth conditions. 2 to 3 weeks after sowing, the test plants are treated at the one- to three-leaf stage. The test compounds, formulated as wettable powders (WP) or liquid (EC), are, in various dosages at a water application rate of 300 l/ha (converted), with wetting agent (0.2 to 0.3%) added, sprayed onto the plants and the surface of the soil. […]
If it is additionally to be tested as to whether safeners can improve the plant compatibility of test substances in the case of crop plants, the following options are used for applying the safener: • seeds of the crop plants are, before sowing, dressed with the safener substance (the amount of safener stated in percent, based on the weight of the seed) • before the application of the test substances, the crop plants are sprayed with the safener at a certain application rate per hectare (usually 1 day before the application of the test substances) • the safener is applied together with the test substance as a tank mix (the amount of safener is stated in g/ha or as a ratio, based on the herbicide). […]

CCc1cc(Cl)cc(OC)c1C1=C(O)C2(CCC(OC)C2)NC1=O (centres unmarked) [Example I-1-a-4]
Summer wheat after 10 d observed (%) (25 g ai/ha): 25% | Summer wheat after 10 d observed (%) (50 g ai/ha): 40%
